Experimental data from patent publication US20110294721A1, “ANTIMICROBIAL PEPTIDES” (priority 2008, published 2011).
Several values for one entry are separate records, joined by “and”; a condition that tells them apart may be missing. Identical values can stand only once. No end group written: not given here.

Legend:
[1] = test system: Xanthomonas vesicatoria; conditions: complete inhibition of bacterial growth; overnight 25° C.; Table 1
[2] = test system: Alternaria alternata; test: MIC in-vitro inhibition assay, antifungal (Example 2); type: cell-based; conditions: complete inhibition of spore germination/mycelial growth; Table 1
Procedure: (§1) In-vitro inhibition assays were performed in sterile flat-bottom 96-well plates (Greiner bio-one, Frickenhausen). Antimicrobial peptides were dissolved in 0.01% acetic acid containing 0.2% BSA (500 μg/ml), filter sterilized and stored at −20° C. For inhibition assays dilutions of peptides ranging from 5 to 200 μg/ml were prepared and 10 μl (antibacterial assay) or 20 μl (antifungal assay) of each concentration was loaded per well.
(§2) Spores of fungi were collected by water washes of sporulating cultures grown on 2% malt extract agar and spore concentration was determined by microscopy. The concentration of the spores was adjusted to 1.5-2×10^3 spores/ml in 2% malt extract medium and 80 μl of fungal spores were added per well. The final peptide concentrations used in the fungal inhibition assays were 0, 2, 4, 10, 20, 40, and 100 μg/ml. After overnight incubation at room temperature the plate were put on a rotary shaker (300 rpm) for further two days to ensure consistantly growth. Antifungal effects of the peptides were determined by a microplate reader (Altemaria, Fusarium) at OD590 nm or by visual screening of the plates (Bottytis, Cladosporium).
(§3) The lowest peptide concentration leading to complete inhibition of bacterial growth or spore germination/mycelial growth (minimal inhibition concentration, MIC) was determined for each organism-peptide combination. For each peptide concentration two identical inhibition assays were performed.

[3] = test system: Botrytis cinerea; test: as above; type: cell-based; conditions: complete inhibition of spore germination/mycelial growth; Table 1
Procedure: as §1, §2, §3

[4] = test system: Cladosporium herbarum; test: as above; type: cell-based; conditions: complete inhibition of spore germination/mycelial growth; Table 1
Procedure: as §1, §2, §3

[5] = test system: Pseudomonas syringae pv. tomato; conditions: complete inhibition of bacterial growth; overnight 25° C.; Table 1
[6] = test system: Pseudomonas corrugata; conditions: complete inhibition of bacterial growth; overnight 25° C.; Table 1
[7] = test system: Pectobacterium carotovorum sub. carotovorum; conditions: complete inhibition of bacterial growth; overnight 25° C.; Table 1
[8] = test system: Pseudomonas syringae pv. syringae; conditions: complete inhibition of bacterial growth; overnight 25° C.; Table 1
[9] = test system: Clavibacter michiganensis; test: MIC and lethal concentration (LC) assay (Example 3); type: cell-based; conditions: Table 2; for LC (lethal concentration): 100% inhibition after at least 4 days of incubation; for MIC: >90% inhibition, 1-2 days at 25° C.
Procedure: as §1
(§4) Bacteria colonies from overnight agar plate cultures were resuspended into 5 ml LB-medium or HPG-medium (OD600 nm=0.08-0.1) and diluted into LB-medium/HPG-medium (1:100). 90 μl of this suspension containing about 10^5-10^6 CFU/ml of tested bacteria were added to each well resulting in final peptide concentrations of 0, 0.5, 1, 2, 5, 10, and 20 μg/ml. […] The lowest concentration, in which there is no observable growth (>90% inhibition) is referred to as minimal inhibitory concentration (MIC). […] For each peptide concentration two identical inhibition assays were performed.

[10] = test system: Pseudomonas syringae pv. tomato; test: as above; type: cell-based; conditions: Table 2; for LC (lethal concentration): 100% inhibition after at least 4 days of incubation; for MIC: >90% inhibition, 1-2 days at 25° C.
Procedure: as §1, §4

[11] = test system: Pseudomonas syringae pv. syringae; test: as above; type: cell-based; conditions: Table 2; for LC (lethal concentration): 100% inhibition after at least 4 days of incubation; for MIC: >90% inhibition, 1-2 days at 25° C.
Procedure: as §1, §4

[12] = test system: Xanthomonas vesicatoria; test: as above; type: cell-based; conditions: Table 2; for LC (lethal concentration): 100% inhibition after at least 4 days of incubation; for MIC: >90% inhibition, 1-2 days at 25° C.
Procedure: as §1, §4

[13] = test system: Pectobacterium carotovorum; test: as above; type: cell-based; conditions: Table 2; for LC (lethal concentration): 100% inhibition after at least 4 days of incubation; for MIC: >90% inhibition, 1-2 days at 25° C.
Procedure: as §1, §4

[14] = test system: Pseudomonas corrugata; conditions: Table 2; for LC (lethal concentration): 100% inhibition after at least 4 days of incubation; for MIC: >90% inhibition, 1-2 days at 25° C.
Procedure: as §1, §4

[15] = test system: HeLa cells (LC5-RIC); type: cell-based, human
Procedure: (§5) Antimicrobial oligopeptides were dissolved in 0.01% acetic acid containing 0.2% BSA (500 μg/ml), filter sterilized and stored at −20° C. […] (in 5% CO2). Afterwards, virus particles were added to the pre-treated HeLa cells and the infection was quantified by measuring red fluorescence with a fluorescence microplate reader after 72 h incubation. The viability of the HeLa cells was determined by measuring the activity of the mitochondrial dehydrogenase according to Lindl and Bauer (1994) and Mosmann (1983).

[16] = test system: human immundeficiency virus (HIV); type: cell-based; conditions: HeLa cells pre-treated 30 min at 37° C.; red fluorescence after 72 h; read-out: IC50, concentration where the infection is decreased by 50% (compared to non-treated controls)
Procedure: Cells were pretreated with 6.3 μg/ml SP13-3 and SP13-14 or buffer for 30 min at 37° C. before addition of virus particles. […] Shown is an overlay of pictures taken under transmitted light and fluorescence after 72 hours incubation. The viability of the HeLa cells was determined by measuring the activity of the mitochondrial dehydrogenase.
To measure the activity of the designed oligopeptides against human immundeficiency virus (HIV) a fluorescence-based reporter system was used. HeLa cells (LC5-RIC) harbour a reporter gene, which regulates in dependency of HIV Rev and Tat proteins the synthesis of a red fluorescing protein. In this way the infection of the HeLa cells (LC5-RIC) is indicated and the infection rate can be quantified using a fluorescence microplate reader.
as §5

Row | Substance | LC (lethal concentration) [9] | MIC [9] | LC (lethal concentration) [10] | MIC [10] | LC (lethal concentration) [11] | MIC [11] | LC (lethal concentration) [12] | MIC [12] | LC (lethal concentration) [13] | MIC [13] | LC (lethal concentration) [14] | MIC [14] | other results
1 | KRKLIFLAAFLAALALFKKR-NH2 [SP15] | – | – | – | – | – | – | – | – | – | – | – | – | Minimal inhibition concentration (MIC) [1]: 20 mg/L; Minimal inhibition concentration (MIC) [2]: >100 mg/L; Minimal inhibition concentration (MIC) [3]: >100 mg/L; Minimal inhibition concentration (MIC) [4]: 40 mg/L; Minimal inhibition concentration (MIC) [5]: 40 mg/L; Minimal inhibition concentration (MIC) [6]: >40 mg/L; Minimal inhibition concentration (MIC) [7]: >40 mg/L; Minimal inhibition concentration (MIC) [8]: >40 mg/L
2 | KRRILIRILKLIIKLILKKR-NH2 [SP13-5] | > 10 µg/mL | 2.5 µg/mL | 5.0 µg/mL | 2.5 µg/mL | >10/>10 μg/ml | >10/>10 μg/ml | 5.0 µg/mL | 1.0 µg/mL | >10/>10 μg/ml | >10/>10 μg/ml | 10/>10 μg/ml | 10/>10 μg/ml | –
3 | KRRKAIKILKLIAKLIRKKR-NH2 [SP13-8] | 0.25 µg/mL | 0.1 µg/mL | 10/>10 μg/ml | 10/>10 μg/ml | >10/>10 μg/ml | >10/>10 μg/ml | 0.5 µg/mL | 0.1 µg/mL | >10/>10 μg/ml | >10/>10 μg/ml | 0.5 µg/mL | 0.25 µg/mL | –
4 | KRRKLAFRAFRFALKAVLKK-NH2 [SP13-13] | 2.5 µg/mL | 0.5 µg/mL | 5.0 µg/mL | 2.5 µg/mL | 0.5/0.5 μg/ml | 0.5/0.5 μg/ml | 0.5 µg/mL | 0.25 µg/mL | >10/>10 μg/ml | >10/>10 μg/ml | 1.0 µg/mL | 0.25 µg/mL | –
5 | KRRKLAFRLFRLFLKLVLKK-NH2 [SP13-14] | 2 to 5 µg/mL | 0.5 µg/mL | 5.0 µg/mL | 2.5 µg/mL | 10 µg/mL | 5.0 µg/mL | 2.5 µg/mL | 0.25 µg/mL | >10/>10 μg/ml | >10/>10 μg/ml | > 10 µg/mL | 2.5 µg/mL | negative/toxic effect on test cells (HeLa cells) [15]: No negative/toxic effect; IC50 [16]: 1.2 µM
6 | KRRKLIKILKLIAKLIRKKR-NH2 [SP13-7] | 0.5 µg/mL | 0.25 µg/mL | 10/>10 μg/ml | 10/>10 μg/ml | >10/>10 μg/ml | >10/>10 μg/ml | 0.25 µg/mL | 0.1 µg/mL | >10/>10 μg/ml | >10/>10 μg/ml | 2.5 µg/mL | 0.5 µg/mL | –
7 | KRRKLIKILKLIIKLIRKKR-NH2 [SP13-6] | 1.0 µg/mL | 0.1 µg/mL | 5.0 µg/mL | 2.5 µg/mL | 2.5 µg/mL | 1.0 µg/mL | 0.5 µg/mL | 0.1 µg/mL | >10/>10 μg/ml | >10/>10 μg/ml | – | 2.5 µg/mL | –
8 | KRRLALFRAFRLALKSVLKK-NH2 [SP13-10] | 0.25 µg/mL | 0.1 µg/mL | 1.0/1.0 μg/ml | 1.0/1.0 μg/ml | >10/>10 μg/ml | >10/>10 μg/ml | 0.25 µg/mL | 0.1 µg/mL | >10/>10 μg/ml | >10/>10 μg/ml | 0.5 µg/mL | 0.25 µg/mL | –
9 | KRRLALFRLFRLALKLVLKK-NH2 [SP13-11] | 2.5/2.5 μg/ml | 2.5/2.5 μg/ml | 5.0 µg/mL | 2.5 µg/mL | >10/>10 μg/ml | >10/>10 μg/ml | 5.0 µg/mL | 2.5 µg/mL | >10/>10 μg/ml | >10/>10 μg/ml | >10/>10 μg/ml | >10/>10 μg/ml | negative/toxic effect on test cells (HeLa cells) [15]: No negative/toxic effect; IC50 [16]: 2.1 µM
10 | KRRLFLFRLFRLFLRLFLKK-NH2 [SP13-12] | 5.0 µg/mL | 2.5 µg/mL | > 10 µg/mL | 5.0 µg/mL | >10/>10 μg/ml | >10/>10 μg/ml | 5.0 µg/mL | 2.5 µg/mL | >10/>10 μg/ml | >10/>10 μg/ml | 10/>10 μg/ml | 10/>10 μg/ml | –
11 | KRRLIARILRLAIRALVKKR-NH2 [SP13-1] | 2.5 µg/mL | 0.5 µg/mL | 5.0 µg/mL and > 10 µg/mL | 1.0 µg/mL | 2.5 µg/mL | 1.0 µg/mL | 1.0 µg/mL | 0.5 µg/mL | >10//>10 μg/ml | >10//>10 μg/ml | 2.5/2.5 μg/ml | 2.5/2.5 μg/ml | –
12 | KRRLIFRILKLFFRFLVKKR-NH2 [SP13-4] | 2.5 µg/mL | 1.0 µg/mL | >10/>10 μg/ml | >10/>10 μg/ml | 10/>10 μg/ml | 10/>10 μg/ml | 2.5/2.5 μg/ml | 2.5/2.5 μg/ml | >10/>10 μg/ml | >10/>10 μg/ml | > 10 µg/mL | 5.0 µg/mL | –
13 | KRRLILRILRLAIRALVKKR-NH2 [SP13-2] | 1.0 µg/mL | 0.25 µg/mL | 10/>10 μg/ml | 10/>10 μg/ml | 10 µg/mL | 5.0 µg/mL | 0.5 µg/mL | 0.25 µg/mL | >10/>10 μg/ml | >10/>10 μg/ml | 5.0/5.0 μg/ml | 5.0/5.0 μg/ml | –
